What all share (experiment): growth of human tumour cells (NCI), 48 h
Assay [1] has as its system KM12 colon.
Assay [2] has as its system SNB-75 CNS.
Assay [3] deals with HS 578T breast.
In assay [4] the test system is M14 melanoma.
The test system of assay [5] is MDA-N.
For assay [6], the system named is HT29 colon.
In assay [7] the test system is HOP-62 NSCLC.
The test system of assay [8] is CAKI-1 renal.
In assay [9] the test system is CCRF-CEM leukemia.
Assay [10] has as its system EKVX NSCLC.
Assay [11] concerns NCI-H23 lung.

For twelve compounds, TGI results are on record in PubChem BioAssay (NCI).

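Method: 48-hour compound exposure of cells in 96-well plates, five concentrations, linear interpolation of endpoints. TGI denotes the concentration required for complete inhibition of growth.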

Regarding `CS(=O)(=O)OC1CCN(C2(c3cccc(O)c3)CCCCC2)CC1`, the TGI in assay [1], in [2], in [3], in assay [4], in [5] and in assay [6] was above 100 µM in each case. Besides, the TGI in assay [7] was above 100 µM; in assay [8] it was above 100 µM; in [9] it was 60.5 µM; in [10], above 100 µM; in [11], above 100 µM.

As for `CC1=NN(c2cccc(Cl)c2)C2(C1)SCC(=O)N2c1nc2ccccc2s1` (stereo unspecified), the TGI is 69.2 µM in [1]; 43.5 µM in assay [2]; above 100 µM in assay [3]; 86.5 µM in [4]; above 100 µM in assay [5]; 63.8 µM in [6]. The TGI in assay [7] is 58.3 µM; in [8] it was above 100 µM; in assay [9], 62.6 µM; in assay [10], above 100 µM; in assay [11], 84.5 µM.

As to `CN(C)Cc1cc(C(=O)/C=C/c2c(F)cccc2Cl)cc(CN(C)C)c1O`, the TGI in assay [1] is 30.4 µM; in assay [2], 21.8 µM; in assay [3], 50.2 µM; in [4], 30 µM; in assay [5] it was 29.1 µM; in assay [6], 23.7 µM. For the same compound, the TGI in assay [7] was 26.7 µM; in assay [8], 25.3 µM; in assay [9] it was 24.1 µM; in assay [10], 28.7 µM; in assay [11], 38.3 µM.

On to `O=C(O)C1C2CCC(C2)C1c1ccccc1` (stereo unspecified), for which the TGI in assay [1], in assay [2], in assay [3], in [4], in [5] and in assay [6] was above 100 µM each time. For the same compound, the TGI in assay [7], in [8], in assay [9], in [10] and in assay [11] was above 100 µM each time.

Regarding `CCOC(=O)c1[nH]n(-c2ccccc2)c(=O)c1C=NC(=S)C(N)=S`, the TGI in [1] was above 100 µM; in [2], 91.4 µM; in assay [3], above 100 µM; in assay [4] it was 73.3 µM; in [5], above 100 µM; in assay [6], above 100 µM. The TGI is above 100 µM in [7]; above 100 µM in assay [8]; above 100 µM in [9]; 97.7 µM in assay [10]; above 100 µM in assay [11].

Regarding `O=c1[nH]c2cc([N+](=O)[O-])c(N(CCO)CCO)c([N+](=O)[O-])c2[nH]1`, the TGI was 93.3 µM in assay [1]; 89.4 µM in assay [2]; above 100 µM in [3]; 89 µM in [4]; above 100 µM in [5]; above 100 µM in assay [6]. Moreover, the TGI in assay [7] is above 100 µM; in [8], above 100 µM; in assay [9], above 100 µM; in assay [10], 54.4 µM; in [11], above 100 µM.

In the case of `COC(=O)C1=C2Nc3ccccc3C23CCN2C(O)C4(CC5CC67CCOC6CCN6CCC8(c9cccc(OC)c9N(C4)C58O)C67)C4OCCC4(C1)C23` (stereo unspecified), the TGI in assay [1] is above 100 µM; in assay [2], 68.3 µM; in assay [3], 77.5 µM; in assay [4] it was above 100 µM; in assay [5] it was above 100 µM; in assay [6], above 100 µM. Besides, the TGI in [7], in assay [8], in assay [9], in assay [10] and in [11] was above 100 µM in each case.

In the case of `COc1cc(C2c3cc4c(cc3OC(N3CCOCC3)C2C)OCO4)cc(OC)c1OC` (stereo unspecified), the TGI in [1] was 14 µM; in assay [2], above 48.2 µM; in assay [3], 0.722 µM; in assay [4], 44.1 µM; in assay [5], 0.439 µM; in [6] it was 7.51 µM. In addition, the TGI in assay [7] was 52.8 µM; in [8], 23.3 µM; in [9] it was above 100 µM; in assay [10], above 100 µM; in [11], 18.2 µM.

Take `OC1NC2CC3NC(O)C(O)NC3CC2NC1O` (stereo unspecified): the TGI in [1], in assay [2], in assay [3], in assay [4], in assay [5] and in assay [6] was above 100 µM each time. Moreover, the TGI in assay [7], in assay [8], in assay [9], in assay [10] and in assay [11] was above 100 µM throughout.

For `CCC(=O)n1c(=O)n(-c2ccc([N+](=O)[O-])cc2)c(=O)n1C(=O)CC`, the TGI in [1], in [2], in assay [3], in [4], in assay [5] and in [6] was above 100 µM in each case. Besides, the TGI in [7], in assay [8], in [9], in [10] and in assay [11] was above 100 µM throughout.

In the case of `COc1cc(C(c2cc(OC)c(OC)c(OC)c2)N2C(=O)CCC2C(=O)O)cc(OC)c1OC` (stereo unspecified), the TGI in assay [1], in [2], in assay [3], in assay [4], in [5] and in assay [6] was above 100 µM each time. The TGI in assay [7], in assay [8], in [9], in assay [10] and in assay [11] was above 100 µM throughout.

Take `CCOc1ccc(-n2c(=O)n3c(Nc4ccc(Cl)cc4)nc4c(c(=O)n(C)c(=O)n4C)n3c2=O)cc1`: the TGI in assay [1] is 30.9 µM; in assay [2], 69.1 µM; in assay [3] it was above 100 µM; in [5], above 100 µM; in [6], above 100 µM; in [7], above 100 µM. Moreover, the TGI was above 100 µM in assay [8], 52.9 µM in assay [9], 89.6 µM in assay [10] and 64.2 µM in assay [11].
